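48-hour exposure; five concentrations; linearly interpolated endpoints. Definition used: TGI = concentration required for complete inhibition of growth.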 Where a SMILES comes first, the peptide text is derived from it. The star is where a group is joined. Boc = CC(C)(C)OC(=O)*

Some test systems named below: SF-539 CNS; NCI-H460 lung; DU-145 prostate; SNB-75 CNS; T-47D breast; A549 NSCLC; 786-0 renal; NCI/ADR-RES ovarian; COLO 205 colon; OVCAR-8 ovarian; HCT-15 colon; HT29 colon; KM12 colon; SK-OV-3 ovarian; K-562 leukemia; MDA-MB-231 breast; UO-31 renal; MOLT-4 leukemia.
Assay in all cases: inhibition of tumour cell growth, NCI panel, 48 h

As for `CC1(C)OP(=O)(c2ccccc2)C=C1Br` (stereo not given), the TGI with SF-539 CNS, with NCI-H460 lung, in the assay with DU-145 prostate, with SNB-75 CNS, in the assay on T-47D breast and in the assay on A549 NSCLC was above 100 µM each time. Moreover, the TGI in the assay with 786-0 renal, in the assay with NCI/ADR-RES ovarian, in the assay on COLO 205 colon, in the assay with OVCAR-8 ovarian, in the assay on HCT-15 colon and in the assay with HT29 colon was above 100 µM in each case. Further, the TGI in the assay on KM12 colon, in the assay on SK-OV-3 ovarian and with K-562 leukemia was above 100 µM throughout.
Consider `O=C1NC(=S)NC1C(Cc1ccccc1)c1ccco1` (stereo not given), for which the TGI in the assay on SF-539 CNS, in the assay on NCI-H460 lung, with DU-145 prostate, in the assay with SNB-75 CNS, with T-47D breast and in the assay with A549 NSCLC was above 100 µM each time. In addition, the TGI in the assay on MDA-MB-231 breast, in the assay on UO-31 renal, with 786-0 renal, in the assay with NCI/ADR-RES ovarian, in the assay on COLO 205 colon and with MOLT-4 leukemia was above 100 µM in each case. Also, the TGI in the assay on OVCAR-8 ovarian, with HCT-15 colon, in the assay with HT29 colon, in the assay on KM12 colon, in the assay on SK-OV-3 ovarian and with K-562 leukemia was above 100 µM each time.
Consider `COc1ccc(NS(=O)(=O)c2ccc3ncn(NS(=O)(=O)c4ccc(I)cc4)c(=O)c3c2)cc1`, for which the TGI in the assay with SF-539 CNS, with NCI-H460 lung, in the assay with DU-145 prostate, in the assay on SNB-75 CNS, with T-47D breast and with A549 NSCLC was above 100 µM throughout. Further, the TGI with MDA-MB-231 breast, in the assay with UO-31 renal, in the assay on 786-0 renal, with NCI/ADR-RES ovarian, in the assay with COLO 205 colon and in the assay with MOLT-4 leukemia was above 100 µM in each case. Further, the TGI in the assay with OVCAR-8 ovarian, with HCT-15 colon, in the assay with HT29 colon, in the assay on KM12 colon, in the assay with SK-OV-3 ovarian and in the assay on K-562 leukemia was above 100 µM each time.
Consider `O=C(CC(O)(C(F)(F)Cl)C(F)(F)Cl)CC(O)(C(F)(F)Cl)C(F)(F)Cl`, for which the TGI was above 10 µM in the assay with SF-539 CNS; above 10 µM in the assay on NCI-H460 lung; above 10 µM in the assay on DU-145 prostate; 9.7 µM in the assay with SNB-75 CNS; 6.6 µM in the assay with T-47D breast; above 10 µM with A549 NSCLC. Further, the TGI in the assay on MDA-MB-231 breast was 5.29 µM; in the assay with UO-31 renal, above 10 µM; in the assay on 786-0 renal it was above 10 µM; with NCI/ADR-RES ovarian, above 10 µM; in the assay with COLO 205 colon, 3.07 µM; with MOLT-4 leukemia, above 10 µM. The TGI is above 10 µM with OVCAR-8 ovarian; above 10 µM with HCT-15 colon; above 10 µM with HT29 colon; above 10 µM in the assay on KM12 colon; 5.89 µM in the assay on SK-OV-3 ovarian; 4.45 µM with K-562 leukemia.
For `CCOC(=O)c1sc2c(c1OC(=O)c1ccc(Cl)cc1Cl)c(=O)n(-c1ccccc1)c(=S)n2-c1ccccc1`, the TGI in the assay on SF-539 CNS is above 100 µM; in the assay with NCI-H460 lung it was above 55 µM; in the assay on DU-145 prostate, above 100 µM; in the assay with SNB-75 CNS, above 100 µM; in the assay on T-47D breast, above 100 µM; in the assay on A549 NSCLC it was above 100 µM. In addition, the TGI was above 90.8 µM with MDA-MB-231 breast; above 100 µM in the assay on UO-31 renal; above 100 µM in the assay with 786-0 renal; above 47.8 µM in the assay on NCI/ADR-RES ovarian; 35.4 µM with COLO 205 colon; 14.5 µM with MOLT-4 leukemia. The TGI in the assay on OVCAR-8 ovarian was above 100 µM; with HCT-15 colon, 38.6 µM; in the assay with HT29 colon, above 77.5 µM; in the assay with KM12 colon, above 42.3 µM; with SK-OV-3 ovarian it was above 81.2 µM; with K-562 leukemia, above 100 µM.
For `CNC(=O)CNC(=O)C(NC(=O)CNC(=O)C1CCCN1C(=O)C(C)NC(=O)C(NC(=O)OC(C)(C)C)C(C)C)C(C)C` (stereo not given) (Boc-VAPGVG-NHMe; configuration not given here), the TGI in the assay on SF-539 CNS, in the assay with NCI-H460 lung, in the assay on DU-145 prostate, in the assay on SNB-75 CNS, in the assay on T-47D breast and with MDA-MB-231 breast was above 100 µM each time. Besides, the TGI in the assay with UO-31 renal, in the assay on 786-0 renal, in the assay with NCI/ADR-RES ovarian, in the assay on COLO 205 colon, in the assay with MOLT-4 leukemia and in the assay on OVCAR-8 ovarian was above 100 µM each time. In addition, the TGI with HCT-15 colon, in the assay on HT29 colon, with SK-OV-3 ovarian and with K-562 leukemia was above 100 µM each time.
With `CN1CCN(Cn2nc(-c3ccccc3)n(/N=C/c3ccc(-c4ccc(Cl)cc4Cl)o3)c2=S)CC1`, the TGI in the assay on SF-539 CNS was 41 µM; with NCI-H460 lung, above 100 µM; in the assay with DU-145 prostate it was 21 µM; in the assay on T-47D breast, 45.1 µM; in the assay on MDA-MB-231 breast, 29.9 µM; in the assay on UO-31 renal it was 29 µM. Also, the TGI was determined as 33.9 µM in the assay with 786-0 renal; 56.2 µM with NCI/ADR-RES ovarian; 5.15 µM in the assay on MOLT-4 leukemia; 25.8 µM in the assay with OVCAR-8 ovarian; 21.2 µM in the assay with HCT-15 colon; 36.3 µM with HT29 colon. The results for the TGI in the assay on KM12 colon, in the assay with SK-OV-3 ovarian and in the assay on K-562 leukemia were 41.3 µM, 27.3 µM and 24.7 µM, respectively.
Consider `CC(=O)c1cc2sc3ccccc3c2[nH]1`, for which the TGI in the assay on SF-539 CNS, in the assay with NCI-H460 lung, with DU-145 prostate, with T-47D breast, in the assay with A549 NSCLC and in the assay with MDA-MB-231 breast was above 100 µM throughout. Further, the TGI in the assay on UO-31 renal, in the assay with 786-0 renal, with NCI/ADR-RES ovarian, with COLO 205 colon, in the assay on MOLT-4 leukemia and in the assay on OVCAR-8 ovarian was above 100 µM throughout. The TGI with HCT-15 colon, with HT29 colon, with KM12 colon, with SK-OV-3 ovarian and with K-562 leukemia was above 100 µM throughout.

The values above are taken from PubChem BioAssay (NCI).
